Data set [1] concerns Schistosoma japonicum. The experiment in a line: Antiparasitic activity against Schistosoma japonicum cercariae isolate Anhui infected in ICR mouse assessed as overall reduction rate at 100 to 400 mg/kg, po administered as single dose for 5 consecutive days measured on day 21 post dose by scanning electron microscopic method. Also on record: scale not given: the % may be the effect or the level left. Format: functional.

The nature of data set [2]: Cytotoxicity against human HeLa cells assessed as cell survival at 40 uM after 24 hrs by MTT assay relative to control. Format: cell-based. To be noted: read-out: Survival.
The test system of data set [3] is Schistosoma japonicum. As to the kind of experiment: Antiparasitic activity against Schistosoma japonicum derived from infected C57BL/6 mouse assessed as parasite killing at 10 uM incubated for 30 to 60 mins measured up to 72 hrs by inverted microscopic method relative to control. Format: functional.
The nature of data set [4]: Drug excretion in human urine at 15 mg/kg, po. Format: ADME, organism-based. To be noted: read-out: Drug excretion.
Data set [5] has as its system Schistosoma mansoni. The experiment in a line: Antiparasitic activity against Schistosoma mansoni in patient assessed as cure rate by measuring reduction in eggs in stool at 10 mg/kg/day bid measured up to day 180 post dose relative to control. Format: functional. Also on record: scale not given: the % may be the effect or the level left.
The nature of data set [6]: Elimination half life in human at 15 mg/kg, po. Format: ADME, organism-based. The note with it: in vivo, read-out: beta t1/2.
The test system of data set [7] is Schistosoma mansoni. The experiment in a line: Antiparasitic activity against Schistosoma mansoni in patient assessed as reduction in eggs per gram of rectal mucosa at 10 mg/kg/day bid measured up to day 180 post dose relative to control. Format: functional. Also on record: scale not given: the % may be the effect or the level left.
Data set [8] can be described thus: Cmax in human at 15 mg/kg, po. Format: ADME, organism-based. Also on record: dose 15 mg/kg, route oral. To be noted: in vivo.
Data set [9] deals with Schistosoma mansoni. The experiment in a line: In vivo antiparasitic activity against Schistosoma mansoni assessed as cure rate at 40 to 60 mg/kg relative to control. Format: functional.
The subject of data set [10] is Schistosoma mansoni. As to the kind of experiment: In vivo antiparasitic activity against Schistosoma mansoni assessed as reduction in egg count in […] at 40 to 60 mg/kg relative to control. Format: functional. Also on record: scale not given: the % may be the effect or the level left.
Data set [11] can be described thus: Fraction absorbed in po dosed monkey. Format: ADME, organism-based, Macaca mulatta. To be noted: rhesus monkey, in vivo, read-out: Fabs.
In a further data set the test system is Plasma. The experiment in a line: Drug level in human plasma after 1 to 2 hrs. Format: ADME, cell-free.
The nature of data set [12]: Fraction absorbed in po dosed human. Format: ADME, organism-based. The note with it: in vivo, read-out: Fabs.
Data set [13] is described as follows: Fraction absorbed in po dosed rat. To be noted: in vivo, read-out: Fabs. Format: ADME, organism-based.
The target of a further data set is albumin (Homo sapiens, UniProt P02768). The experiment in a line: Binding affinity to albumin (unknown origin). Format: ADME. To be noted: read-out: PB.
Sequence of albumin (P02768 whole entry): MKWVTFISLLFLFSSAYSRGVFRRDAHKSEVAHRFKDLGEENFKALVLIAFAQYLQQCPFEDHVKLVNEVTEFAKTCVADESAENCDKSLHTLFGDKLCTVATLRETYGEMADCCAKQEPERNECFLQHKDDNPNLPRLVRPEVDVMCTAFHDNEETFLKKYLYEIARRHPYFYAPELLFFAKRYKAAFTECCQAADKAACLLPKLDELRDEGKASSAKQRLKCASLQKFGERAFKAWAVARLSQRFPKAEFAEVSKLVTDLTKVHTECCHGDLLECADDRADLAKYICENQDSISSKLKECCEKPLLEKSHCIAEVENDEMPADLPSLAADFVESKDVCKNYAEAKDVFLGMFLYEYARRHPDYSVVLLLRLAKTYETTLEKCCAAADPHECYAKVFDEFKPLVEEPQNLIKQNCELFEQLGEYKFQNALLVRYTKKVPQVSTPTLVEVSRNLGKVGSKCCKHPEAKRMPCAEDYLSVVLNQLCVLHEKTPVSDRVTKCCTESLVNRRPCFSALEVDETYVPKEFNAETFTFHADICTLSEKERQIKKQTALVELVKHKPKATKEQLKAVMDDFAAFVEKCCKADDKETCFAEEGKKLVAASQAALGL
The test system of data set [14] is Schistosoma mansoni. As to the kind of experiment: Antiparasitic activity against Schistosoma mansoni in patient assessed as reduction in eggs per gram of rectal mucosa at 60 mg/kg/day for 3 consecutive days measured up to day 180 post dose relative to control. Format: functional. Also on record: scale not given: the % may be the effect or the level left.
Data set [15] is described as follows: Apparent permeability in human Caco2 cells. Format: ADME, cell-based. To be noted: Caco-2.
The nature of data set [16]: Protein binding in plasma (unknown origin). Format: ADME, cell-free.
Data set [17] can be described thus: Protein binding in plasma (unknown origin) relative to control. Format: ADME, cell-free. The note with it: read-out: PPB.
Data set [18] in a line: Drug excretion in human urine up to 4 days. Format: ADME. The note with it: read-out: Drug excretion.
The subject of data set [19] is Schistosoma mansoni. The experiment in a line: Antiparasitic activity against Schistosoma mansoni in patient assessed as cure rate by measuring reduction in eggs in stool at 60 mg/kg/day for 3 consecutive days measured up to day 180 post dose relative to control. Format: functional. Also on record: scale not given: the % may be the effect or the level left.
The nature of data set [20]: Half life in human. Format: ADME.
Data set [21] can be described thus: Tmax in human. Format: ADME.
Data set [22] in a line: Antiparasitic activity against Schistosoma in intestinal schistosomiasis patient assessed as cure rate at 40 mg/kg. Format: functional.
Data set [23] is described as follows: Fraction absorbed in po dosed dog. Format: ADME, organism-based, Canis lupus familiaris. To be noted: in vivo, read-out: Fabs.
The nature of data set [24]: Cmax in human after 1 to 2 hrs. Format: ADME.

The values below come from ChEMBL document CHEMBL4033679, “Medicinal chemistry of antischistosomal drugs: Praziquantel and oxamniquine” (Bioorg Med Chem, 2017).

A value given as a limit tells only on which side of the number the result lay.

On to `C[C@H]1[C@@H](OC(=O)CCC(=O)Oc2ccc3c(c2)C2CN(C(=O)C4CCCCC4)CC(=O)N2CC3)O[C@@H]2O[C@@]3(C)CC[C@H]4[C@H](C)CC[C@@H]1[C@@]24OO3` (stereo partly drawn), for which the Activity in the data set with Schistosoma japonicum [1] came to 60%.

Take `O=C(C1CCCCC1)N1CC(=O)N2CCc3ccc([N+](=O)[O-])cc3C2C1` (stereo not drawn): the viability at 24 h, 40 µM in data set [2] was over 85%.

In the case of `Nc1ccc2c(c1)C1CN(C(=O)C3CCCCC3)CC(=O)N1CC2` (stereo not drawn), the viability at 24 h, 40 µM in [2] was over 85%.

As to `O=C(CCCCCN1C(=O)c2cccc3c(C4CCOCC4)ccc(c23)C1=O)Nc1ccc2c(c1)C1CN(C(=O)C3CCCCC3)CC(=O)N1CC2` (stereo not drawn), in data set [2], the viability at 24 h, 40 µM is over 85%.

In the case of `O=C(CCl)N1CC(=O)N2CCc3sccc3C2C1` (stereo not drawn), the Activity in the data set with Schistosoma japonicum [3] was 100%.

On to `CC(C)NCC1CCc2cc(CO)c([N+](=O)[O-])cc2N1` (stereo not drawn) [OXAMNIQUINE], for which, in data set [4], the dose excreted lay within 0.4 to 1.9%. In addition, the Activity in the data set with Schistosoma mansoni [5] amounted to 90.3%; in the data set on Schistosoma mansoni [7] it was 42.4%. In addition, the half-life in data set [6] lay in the range of 1.5 to 2 h. The same molecule returned a Cmax in data set [8] of 1000 to 4000 ng/mL.

As to `O=C(C1CCCCC1)N1CC(=O)N2CCc3ccccc3C2C1` (stereo not drawn) [PRAZIQUANTEL], the Activity in the data set with Schistosoma mansoni [9] is given as 60 - 90%; in the data set with Schistosoma mansoni [10] it was 90 - 95%; in the data set with Schistosoma mansoni [14] it was 96.1%; in the data set on Schistosoma mansoni [19] it was 100%; in data set [22], 18 - 39%. The Fa in [11], in [12], in data set [13] and in [23] was 75 to 100% throughout. In the data set on Plasma, the Drug uptake lay in the range of 5 to 7 %ID. For the same molecule, the results for the fraction unbound (at albumin; in [17]) were 0.19 to 0.22 and 0.195 to 0.21, respectively. In addition, the apparent permeability (Papp) in [15] came out at 44 ×10⁻⁶ cm/s. This molecule also gave a PPB in data set [16] of 0.19 to 3 mg/mL. The dose excreted at 96 h in data set [18] is 80%. Also, in data set [20], the half-life was 1.5 h. The Tmax in data set [21] is 3 to 4 h. In [24], this molecule registered a Cmax of 1000 ng/mL.
